Here are results for nine compounds from US20190388421A1, “NOVEL COMPOUNDS AND PHARMACEUTICAL COMPOSITIONS THEREOF FOR THE TREATMENT OF FIBROSIS” (Galapagos NV, priority 2016, published 2019).

Assay [1] addresses T1, human GPCR sphingosine 1-phosphate receptor 2 (S1PR2) (Homo sapiens, UniProt O95136).
T1 construct: host or cells: CHO
Description: S1P2 antagonist assay (Ca2+ flux, S1P at EC80). The class given is cell-based. To be noted: CHO-S1PR2 cells, highest concentration 20 μM. The protocol:
Triggering of S1PR2 by administration of Sphingosine-1-phosphate leads to a transient increase in intracellular Ca^2+. The Ca^2+ flux assays are measuring the release of Ca^2+ intracellularly by use of a Ca^2+ sensitive fluorescent dye. The assay is firstly run in agonist mode (incubation of compounds alone) to ensure that the Ca^2+ released measured is not caused by the test compound having an agonistic effect. Then the assay is continued in antagonist mode (Sphingosine-1-Phosphate added to incubated medium containing the test compounds).
CHO cells stably overexpressing human GPCR sphingosine 1-phosphate receptor 2 (CHO—S1PR2 Perkin Elmer; ES-594-A) are seeded from a frozen stock in 384 wells sterile microplates (50 μL; 7,500 cells/well) and are incubated overnight at 37° C. and 5% CO2. The next day cells are washed twice with starvation medium (F-12 Ham's medium containing 0.1% BSA (Fatty acid free: FAF)) and left in […] starvation medium for 1 h at 37° C., 5% CO2. After this starvation cells are incubated with […] buffer containing the Ca^2+-sensitive fluorescent dye (0.5 mg Fluo8+125 mg Allura Red in 100 ml of 1% DMSO, in HBSS+20 mM Hepes+5 mM probenecid). The cells are incubated for an additional 1 hour after which 10 μL compounds, diluted in HBSS buffer with 20 mM Hepes and 0.1% BSA (FAF), are added to the cells and intracellular Ca^2+ changes are immediately measured by reading fluorescence during 3 min (FDSS/μCELL reader). The ratio of the maximal fluorescence over the background fluorescence before compound injection is used to determine compound response.
(§1) After readout of the agonist activity, the plates are incubated for 15 min at 37° C. and 5% CO2. Then, cells are stimulated with 10 μL Sphingosine-1-Phosphate (S1P) (Avanti Polar lipids-860492P) at its EC80 concentration. Intracellular Ca^2+ changes are immediately measured by reading fluorescence during 3 min (FDSS/μCELL reader). The ratio of the maximal fluorescence over the background fluorescence before compound injection is used to determine compound response.
(§2) For EC50 determination, a 10 point dilution series of compounds starting from 23.3 μM and 20 μM highest final concentration for agonist and antagonist respectively, ⅓ dilution was performed.
(§3) The obtained ratio's for agonist and antagonist readout were normalized versus vehicle and EC100 of S1P as controls for agonist mode and versus vehicle and EC80 of S1P for antagonist mode. From these normalized data EC50 of the compounds are derived.

The target of assay [2] is T2, human GPCR sphingosine 1-phosphate receptor 1 (S1PR1) (Homo sapiens, UniProt P21453).
T2 construct: host or cells: CHO
T2 sequence (P21453 whole entry): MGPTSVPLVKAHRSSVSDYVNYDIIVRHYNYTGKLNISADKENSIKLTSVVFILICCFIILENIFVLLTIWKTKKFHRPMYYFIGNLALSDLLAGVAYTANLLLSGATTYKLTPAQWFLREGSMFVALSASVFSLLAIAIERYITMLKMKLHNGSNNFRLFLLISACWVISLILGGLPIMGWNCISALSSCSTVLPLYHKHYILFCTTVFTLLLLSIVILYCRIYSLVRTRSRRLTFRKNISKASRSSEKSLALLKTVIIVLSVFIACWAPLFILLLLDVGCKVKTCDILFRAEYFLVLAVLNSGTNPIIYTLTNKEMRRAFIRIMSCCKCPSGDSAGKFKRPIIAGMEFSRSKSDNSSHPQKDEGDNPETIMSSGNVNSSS
As to the kind of experiment: S1PR1 selectivity assay (Ca2+ flux, antagonist). The conditions noted are these: S1P1 antagonist EC50, CHO cells overexpressing human S1PR1 and Gq protein. The format is cell-based. The protocol: as §1, §2, §3
(§4) To evaluate the selectivity of the compounds for S1PR2 over S1PR1 and S1PR5, a similar assay set up as described above for the S1PR2 calcium flux assays was performed: CHO cells stably overexpressing human GPCR sphingosine 1-phosphate receptor 1 and Gq protein (Euroscreen, FAST-0197A) or overexpressing human GPCR sphingosine 1-phosphate receptor 5 and Gq protein were used (Perkin Elmer, ES-593-A). In case of the S1PR5 assay triggering was done with an S1PR5 specific agonist instead of with S1P (Hobson et al., 2015).

Assay [3] addresses T3, human GPCR sphingosine 1-phosphate receptor 5 (S1PR5) (Homo sapiens, UniProt Q9H228).
T3 construct: host or cells: CHO
Description: S1PR5 selectivity assay (Ca2+ flux, antagonist, S1PR5 specific agonist trigger). To be noted: S1P5 antagonist EC50, CHO cells overexpressing human S1PR5 and Gq protein. The class given is cell-based. As to the method:
as §1, §2, §3, §4

The target in assay [4] is T4, S1PR2 (Homo sapiens, UniProt O95136).
T4 construct: expressed in transfected cells
T4 sequence (O95136 whole entry): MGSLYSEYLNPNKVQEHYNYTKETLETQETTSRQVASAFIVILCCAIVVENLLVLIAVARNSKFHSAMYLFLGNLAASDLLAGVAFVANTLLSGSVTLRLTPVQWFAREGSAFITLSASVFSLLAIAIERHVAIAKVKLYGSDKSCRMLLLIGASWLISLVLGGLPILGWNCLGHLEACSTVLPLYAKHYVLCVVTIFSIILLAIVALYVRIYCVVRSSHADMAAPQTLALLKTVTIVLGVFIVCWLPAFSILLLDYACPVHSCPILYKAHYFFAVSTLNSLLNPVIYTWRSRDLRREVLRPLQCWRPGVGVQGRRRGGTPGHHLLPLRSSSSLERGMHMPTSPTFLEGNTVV
As to the kind of experiment: GTP-γS binding assay ([35S]GTPγS, S1P at EC80, S1PR2 membranes). The class given is biochemical. To be noted: membranes from stable cell line over expressing S1PR2, read-out: S1PR2 EC. As to the method:
The following assay can be used for determination of S1PR2 activation. The [^35S] GTPγS assay measures the level of G protein activation following agonist occupation of a GPCR, by determining the binding of the non-hydrolysable analog [^35S] GTPγS to Gα subunits.
The assay is performed in a 96 well plate where the following reagents are added. First 50 μL compound is added into the assay plate, followed by addition of 20 μL S1P at EC80 concentration (concentration which gives 80% of the activity of S1PR2). Then, 30 μL of a mixture consisting of membranes-GTPγS-SpA beads is added [mixture consists of 2.5 μg/well membranes derived from stable cell line over expressing S1PR2 (membranes are pre-incubated with 1 μM GDP for 15 min at 4° C.), 0.1 nM [35S]GTPγS (Perkin Elmer, NEG030) and 0.5 mg/well PVT-WGA SpA beads (Perkin Elmer, RPNQ0001)]. All components are diluted in assay buffer containing 20 mM Tris pH 7.5; 10 mM MgCl2; 100 mM NaCl; 0.1% BSA FAF; 50 ug/ml saponin. After an incubation for 4 h at room temperature, plates are centrifuged at 2000 rpm during 20 min. Plates are read on a Topcount reader (Perkin Elmer) immediately after centrifugation (readout time, 1 min/well).

T3 sequence (Q9H228 whole entry): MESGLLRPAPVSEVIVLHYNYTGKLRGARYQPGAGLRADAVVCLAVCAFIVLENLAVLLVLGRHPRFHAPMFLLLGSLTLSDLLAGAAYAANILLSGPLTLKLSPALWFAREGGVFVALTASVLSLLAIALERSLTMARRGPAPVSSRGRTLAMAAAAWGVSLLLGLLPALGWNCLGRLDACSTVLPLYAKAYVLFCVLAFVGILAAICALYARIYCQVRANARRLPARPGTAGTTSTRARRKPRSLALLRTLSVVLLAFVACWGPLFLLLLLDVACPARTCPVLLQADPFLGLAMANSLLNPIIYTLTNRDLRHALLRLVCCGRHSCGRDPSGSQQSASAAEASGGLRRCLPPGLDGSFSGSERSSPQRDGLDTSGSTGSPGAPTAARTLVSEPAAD
T1 sequence (O95136 whole entry): as the sequence (O95136 whole entry) above

Turning to `Cc1cc(CNC(=O)Nc2cnc(OCC(F)F)c(C(F)(F)F)c2)nnc1-c1cn(C)nc1C(F)(F)F` [Compound 7, 1-[6-(2,2-difluoroethoxy)-5-(trifluoromethyl)-3-pyridyl]-3-[[5-methyl-6-[1-methyl-3-(trifluoromethyl)pyrazol-4-yl]pyridazin-3-yl]methyl]urea], the EC50 in assay [1] is 0.0178 µM; in assay [2], no less than 19.8 µM; in assay [3], no less than 19.8 µM; in assay [4] it was 0.33 µM.

Take `Cc1cc(CNC(=O)Nc2cnc(OCC(F)F)c(Cl)c2)nnc1-c1cn(C)nc1C(F)(F)F` [Compound 9, 1-[5-chloro-6-(2,2-difluoroethoxy)-3-pyridyl]-3-[[5-methyl-6-[1-methyl-3-(trifluoromethyl)pyrazol-4-yl]pyridazin-3-yl]methyl]urea]: the EC50 in assay [1] is 0.0237 µM; in assay [2], no less than 19.8 µM; in assay [3], no less than 19.8 µM; in assay [4], 0.532 µM.

On to `CCOc1ncc(NC(=O)NCc2cc(C)c(-c3cn(C)nc3C(F)(F)F)nn2)cc1C(F)(F)F` [Compound 10, 1-[6-ethoxy-5(trifluoromethyl)-3-pyridyl]-3-[[5-methyl-6-[1-methyl-3-(trifluoromethyl)pyrazol-4-yl]pyridazin-3-yl]methyl]urea], for which the EC50 in assay [1] is 0.015 µM; in assay [2], no less than 19.8 µM; in assay [3], no less than 19.8 µM; in assay [4], 0.281 µM.

Turning to `CCOc1cc(NC(=O)NCc2cc(C)c(-c3cn(COC)nc3C(F)(F)F)nn2)cc(Cl)n1` [Compound 15], the EC50 is 0.0092 µM in assay [1], 6.61 µM in assay [2], no less than 19.8 µM in assay [3] and 0.0916 µM in assay [4].

As to `Cc1cc(CNC(=O)Nc2cc(Cl)nc(OCC(F)F)c2)nnc1-c1cn(C)nc1C(F)(F)F` [Compound 17, 1-[2-chloro-6-(2,2-difluoroethoxy)-4-pyridyl]-3-[[5-methyl-6-[1-methyl-3-(trifluoromethyl)pyrazol-4-yl]pyridazin-3-yl]methyl]urea], the EC50 in assay [1] worked out at 0.0086 µM; in assay [2], 4.94 µM; in assay [3], 6.61 µM; in assay [4], 0.0361 µM.

With `CCOc1nc(Cl)cc(NC(=O)NCc2cc(C)c(-c3cn(C)nc3C(F)(F)F)nn2)c1C` [Compound 20, 1-(6-chloro-2-ethoxy-3-methyl-4-pyridyl)-3-[[5-methyl-6-[1-methyl-3-(trifluoromethyl)pyrazol-4-yl]pyridazin-3-yl]methyl]urea], the EC50 worked out at 0.0088 µM in assay [1], 3.87 µM in assay [2], 2.1 µM in assay [3] and 0.0152 µM in assay [4].

Turning to `CCOc1cc(NC(=O)NCc2cc(C)c(-c3cn(C)nc3C(F)(F)F)nn2)cc(C2CC2)n1` [Compound 22, 1-(2-cyclopropyl-6-ethoxy-4-pyridyl)-3-[[5-methyl-6-[1-methyl-3-(trifluoromethyl)pyrazol-4-yl]pyridazin-3-yl]methyl]urea], the EC50 in assay [1] is 0.0173 µM; in assay [2], 6.61 µM; in assay [3], no less than 19.8 µM; in assay [4], 0.086 µM.

Take `Cc1cc(CNC(=O)Nc2cnc(Cl)c(OCC(F)F)c2)nnc1-c1cn(C)nc1C(F)(F)F` [Compound 23, 1-[6-chloro-5-(2,2-difluoroethoxy)-3-pyridyl]-3-[[5-methyl-6-[1-methyl-3-(trifluoromethyl)pyrazol-4-yl]pyridazin-3-yl]methyl]urea]: the EC50 in assay [1] is 0.0106 µM; in assay [2], no less than 19.8 µM; in assay [3], no less than 19.8 µM; in assay [4] it was 0.0745 µM.

Take `CCOc1cc(NC(=O)NCc2cc(C)c(-c3cn(C)nc3C(F)(F)F)nn2)cnc1Cl` [Compound 24, 1-(6-chloro-5-ethoxy-3-pyridyl)-3-[[5-methyl-6-[1-methyl-3-(trifluoromethyl)pyrazol-4-yl]pyridazin-3-yl]methyl]urea]: the EC50 in assay [1] was 0.0087 µM; in assay [2], no less than 19.8 µM; in assay [3], no less than 19.8 µM; in assay [4] it was 0.0538 µM.
